These results are taken from paper PMC2804074 (Journal of medicinal chemistry, 2010).

Data set [1] concerns inteleukine-2 (IL-2) release in Jurkat cells. The following applies: 10 μM compound; cited from earlier work.
Data set [2] relates to transient global ischemia. The following applies: gerbils; i.p. doses ≥ 60 mg/kg; cited from earlier work.
The target of data set [3] is T1, p38 (Homo sapiens, UniProt Q16539). The experiment in a line: biochemical.
Data set [4] relates to c-jun phosphorylation in INS-1 β-pancreatic cells. It is filed as cell-based, rat. The following applies: for decrease in potency (shift) for c-jun phosphorylation cell-based assay compared to JNK1 biochemical IC50: cell-based versus JNK1 biochemical.
The nature of data set [5]: Microsomal stability, mouse. It is filed as in vitro ADME. The following applies: 2 mg/mL mouse liver microsomes, 1 μM compound.
The nature of data set [6]: Microsomal stability, rat. It is filed as in vitro ADME. The following applies: 2 mg/mL rat liver microsomes, 1 μM compound. On the technique in general: Microsomes from liver hold many membrane-bound enzymes, among them those of drug oxidation.
Data set [7] can be described thus: Microsomal stability, human. The data set is classed as in vitro ADME. The following applies: 2 mg/mL human liver microsomes, 1 μM compound.
The target in data set [8] is JNK3 (Homo sapiens, UniProt P53779).
In data set [9] the target is CYP2C9 (Homo sapiens, UniProt P11712). Nature of the data set: P450 inhibition, tolbutamide hydroxylation. The data set is classed as in vitro ADME. The following applies: probe tolbutamide.
In data set [10] the target is CYP2D6 (Homo sapiens, UniProt P10635). Nature of the data set: P450 inhibition, bufuralol hydroxylation. The data set is classed as in vitro ADME. The following applies: probe bufuralol.
The target in data set [11] is CYP3A4 (Homo sapiens, UniProt P08684). The experiment in a line: P450 inhibition, midazolam hydroxylation. It is filed as in vitro ADME. The following applies: probe midazolam.
The target of data set [12] is T2, CYP1A2 (Homo sapiens, UniProt P05177).
T2 sequence (P05177 1-516): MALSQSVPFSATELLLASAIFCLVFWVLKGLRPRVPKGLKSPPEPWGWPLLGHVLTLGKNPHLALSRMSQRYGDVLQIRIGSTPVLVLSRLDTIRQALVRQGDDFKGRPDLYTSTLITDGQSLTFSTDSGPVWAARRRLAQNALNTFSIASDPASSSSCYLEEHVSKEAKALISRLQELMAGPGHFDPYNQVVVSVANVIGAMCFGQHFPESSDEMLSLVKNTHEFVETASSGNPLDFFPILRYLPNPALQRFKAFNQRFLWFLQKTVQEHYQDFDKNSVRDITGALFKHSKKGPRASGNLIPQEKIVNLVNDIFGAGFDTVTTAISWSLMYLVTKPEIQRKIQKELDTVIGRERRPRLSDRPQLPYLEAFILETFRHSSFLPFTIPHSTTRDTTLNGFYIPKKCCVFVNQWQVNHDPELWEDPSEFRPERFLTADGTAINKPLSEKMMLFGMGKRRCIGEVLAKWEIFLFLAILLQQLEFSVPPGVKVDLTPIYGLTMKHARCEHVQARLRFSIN
Nature of the data set: P450 inhibition, phenaceten demethylation. The following applies: probe phenaceten. The data set is classed as in vitro ADME.

In data set [13] the target is JNK1 (Homo sapiens, UniProt P45983). Nature of the data set: Homogeneous time resolved fluorescence biochemical assay, JNK1.
Data set [14] deals with T1, p38. The following applies: JNK versus p38.
Data set [15] has as its system panel of 400 kinases. The experiment in a line: Broad counterscreening against a panel of 400 kinases. It is filed as biochemical. The following applies: 3 μM; out of 400 kinases. In general terms: A counterscreen serves to expose hits that act by an unwanted route or on another target.
Data set [16] addresses T3, MKK7 (Homo sapiens, UniProt O14733).
T3 sequence (O14733 1-419): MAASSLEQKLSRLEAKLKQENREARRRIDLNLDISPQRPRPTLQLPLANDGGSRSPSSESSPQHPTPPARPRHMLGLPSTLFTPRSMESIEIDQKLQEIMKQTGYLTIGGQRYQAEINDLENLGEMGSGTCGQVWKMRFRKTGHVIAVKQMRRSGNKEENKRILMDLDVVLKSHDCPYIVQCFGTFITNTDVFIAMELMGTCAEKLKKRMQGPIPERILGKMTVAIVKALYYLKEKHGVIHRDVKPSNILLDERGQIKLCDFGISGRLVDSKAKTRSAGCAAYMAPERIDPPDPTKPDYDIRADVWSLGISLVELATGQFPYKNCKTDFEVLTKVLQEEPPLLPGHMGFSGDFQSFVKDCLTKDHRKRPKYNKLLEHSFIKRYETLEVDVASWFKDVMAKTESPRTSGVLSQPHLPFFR
Nature of the data set: Kinase counterscreen, MKK7. The data set is classed as biochemical. The following applies: 3 μM.

Data set [17] deals with T4, MKK4 (Homo sapiens, UniProt P45985).
T4 sequence (P45985 1-399): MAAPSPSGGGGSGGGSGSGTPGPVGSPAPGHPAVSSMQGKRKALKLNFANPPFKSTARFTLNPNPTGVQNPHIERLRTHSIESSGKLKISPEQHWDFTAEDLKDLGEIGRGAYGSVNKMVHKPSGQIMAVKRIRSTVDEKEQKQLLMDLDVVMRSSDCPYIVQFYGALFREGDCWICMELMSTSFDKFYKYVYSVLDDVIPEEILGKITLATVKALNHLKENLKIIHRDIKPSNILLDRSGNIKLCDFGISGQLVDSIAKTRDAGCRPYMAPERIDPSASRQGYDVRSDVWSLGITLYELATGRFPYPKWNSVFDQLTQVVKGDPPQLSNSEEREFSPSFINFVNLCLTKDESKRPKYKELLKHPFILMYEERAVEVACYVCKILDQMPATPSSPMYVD
The experiment in a line: Kinase counterscreen, MKK4. It is filed as biochemical. The following applies: 3 μM.

In data set [18] the test system is MLK1-3. The experiment in a line: Kinase counterscreen, MLK1-3. The data set is classed as biochemical. The following applies: 3 μM.
Data set [19] has as its system MAPK3K1-4. The experiment in a line: Kinase counterscreen, MAPK3K1-4. The data set is classed as biochemical. The following applies: 3 μM.
In data set [20] the target is T5, ASK-1 (Homo sapiens, UniProt Q99683).
T5 sequence (Q99683 1-1374): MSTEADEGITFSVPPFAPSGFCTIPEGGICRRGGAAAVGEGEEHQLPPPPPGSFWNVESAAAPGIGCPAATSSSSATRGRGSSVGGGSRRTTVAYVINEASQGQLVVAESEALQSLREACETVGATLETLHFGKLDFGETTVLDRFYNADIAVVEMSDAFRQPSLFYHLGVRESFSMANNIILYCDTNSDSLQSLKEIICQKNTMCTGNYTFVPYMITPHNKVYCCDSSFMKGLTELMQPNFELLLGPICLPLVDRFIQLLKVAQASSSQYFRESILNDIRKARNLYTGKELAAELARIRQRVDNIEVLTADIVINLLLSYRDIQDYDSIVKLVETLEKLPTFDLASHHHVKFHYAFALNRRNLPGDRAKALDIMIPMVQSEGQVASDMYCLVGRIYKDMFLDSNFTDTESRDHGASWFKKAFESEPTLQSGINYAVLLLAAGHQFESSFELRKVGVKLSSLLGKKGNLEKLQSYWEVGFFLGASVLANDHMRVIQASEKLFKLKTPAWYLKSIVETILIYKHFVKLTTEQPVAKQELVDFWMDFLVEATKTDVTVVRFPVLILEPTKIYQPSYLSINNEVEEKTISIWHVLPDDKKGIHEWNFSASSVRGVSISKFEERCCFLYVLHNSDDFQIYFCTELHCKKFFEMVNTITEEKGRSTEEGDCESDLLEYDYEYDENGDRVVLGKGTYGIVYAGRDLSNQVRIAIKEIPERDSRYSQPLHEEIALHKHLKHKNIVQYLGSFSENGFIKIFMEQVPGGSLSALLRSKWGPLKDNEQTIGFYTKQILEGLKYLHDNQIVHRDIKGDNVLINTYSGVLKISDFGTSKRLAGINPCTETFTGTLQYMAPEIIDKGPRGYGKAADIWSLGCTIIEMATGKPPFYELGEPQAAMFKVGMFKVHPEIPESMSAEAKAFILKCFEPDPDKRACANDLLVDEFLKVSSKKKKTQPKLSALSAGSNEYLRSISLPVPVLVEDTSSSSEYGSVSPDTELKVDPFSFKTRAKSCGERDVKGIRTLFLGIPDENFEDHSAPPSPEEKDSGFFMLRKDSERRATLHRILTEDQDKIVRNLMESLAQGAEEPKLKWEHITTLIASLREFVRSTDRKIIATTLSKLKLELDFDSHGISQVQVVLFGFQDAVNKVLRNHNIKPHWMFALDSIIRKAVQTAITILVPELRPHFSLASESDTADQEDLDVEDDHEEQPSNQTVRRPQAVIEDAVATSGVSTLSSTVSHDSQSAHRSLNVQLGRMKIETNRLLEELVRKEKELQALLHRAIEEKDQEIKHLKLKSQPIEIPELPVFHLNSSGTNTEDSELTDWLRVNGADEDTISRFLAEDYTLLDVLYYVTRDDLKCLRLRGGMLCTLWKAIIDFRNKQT
The experiment in a line: Kinase counterscreen, ASK-1. The data set is classed as biochemical. The following applies: 3 μM.

T1 sequence (Q16539 whole entry): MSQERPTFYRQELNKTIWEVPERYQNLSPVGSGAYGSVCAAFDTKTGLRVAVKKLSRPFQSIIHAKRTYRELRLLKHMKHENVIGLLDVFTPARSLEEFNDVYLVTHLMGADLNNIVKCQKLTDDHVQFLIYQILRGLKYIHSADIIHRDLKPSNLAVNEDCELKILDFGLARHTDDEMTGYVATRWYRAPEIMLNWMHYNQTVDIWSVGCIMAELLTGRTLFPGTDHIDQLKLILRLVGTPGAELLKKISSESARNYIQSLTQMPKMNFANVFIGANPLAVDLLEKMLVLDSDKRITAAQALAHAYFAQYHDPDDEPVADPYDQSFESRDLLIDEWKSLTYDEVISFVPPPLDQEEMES
Chain of CYP3A4 (P08684 whole entry): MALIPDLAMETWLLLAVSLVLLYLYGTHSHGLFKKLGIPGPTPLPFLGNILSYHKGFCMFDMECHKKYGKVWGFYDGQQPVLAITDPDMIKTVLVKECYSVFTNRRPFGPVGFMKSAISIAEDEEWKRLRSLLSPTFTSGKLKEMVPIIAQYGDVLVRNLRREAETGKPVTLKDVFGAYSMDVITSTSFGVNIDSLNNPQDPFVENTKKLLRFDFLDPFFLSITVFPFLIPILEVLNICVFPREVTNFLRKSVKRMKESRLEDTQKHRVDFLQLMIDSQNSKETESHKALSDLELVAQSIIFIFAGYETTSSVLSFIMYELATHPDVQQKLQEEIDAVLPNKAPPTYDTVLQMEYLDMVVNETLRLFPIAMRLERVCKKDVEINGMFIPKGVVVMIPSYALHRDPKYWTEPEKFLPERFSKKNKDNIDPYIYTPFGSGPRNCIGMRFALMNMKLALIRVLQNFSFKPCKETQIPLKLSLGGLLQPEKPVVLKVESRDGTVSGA
Chain of CYP2D6 (P10635 whole entry): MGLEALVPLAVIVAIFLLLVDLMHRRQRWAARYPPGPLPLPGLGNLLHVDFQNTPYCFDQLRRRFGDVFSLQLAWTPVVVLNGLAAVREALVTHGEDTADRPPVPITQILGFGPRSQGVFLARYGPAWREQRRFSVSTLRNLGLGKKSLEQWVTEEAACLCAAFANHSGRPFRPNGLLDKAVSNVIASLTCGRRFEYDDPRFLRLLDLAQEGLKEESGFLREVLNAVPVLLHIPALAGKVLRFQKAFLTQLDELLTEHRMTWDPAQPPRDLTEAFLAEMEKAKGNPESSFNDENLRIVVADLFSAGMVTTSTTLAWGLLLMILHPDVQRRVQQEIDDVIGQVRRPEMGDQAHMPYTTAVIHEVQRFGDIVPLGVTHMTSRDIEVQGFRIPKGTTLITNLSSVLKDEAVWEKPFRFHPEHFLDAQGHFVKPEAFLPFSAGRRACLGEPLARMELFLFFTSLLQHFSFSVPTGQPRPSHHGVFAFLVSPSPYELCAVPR
Chain of CYP2C9 (P11712 whole entry): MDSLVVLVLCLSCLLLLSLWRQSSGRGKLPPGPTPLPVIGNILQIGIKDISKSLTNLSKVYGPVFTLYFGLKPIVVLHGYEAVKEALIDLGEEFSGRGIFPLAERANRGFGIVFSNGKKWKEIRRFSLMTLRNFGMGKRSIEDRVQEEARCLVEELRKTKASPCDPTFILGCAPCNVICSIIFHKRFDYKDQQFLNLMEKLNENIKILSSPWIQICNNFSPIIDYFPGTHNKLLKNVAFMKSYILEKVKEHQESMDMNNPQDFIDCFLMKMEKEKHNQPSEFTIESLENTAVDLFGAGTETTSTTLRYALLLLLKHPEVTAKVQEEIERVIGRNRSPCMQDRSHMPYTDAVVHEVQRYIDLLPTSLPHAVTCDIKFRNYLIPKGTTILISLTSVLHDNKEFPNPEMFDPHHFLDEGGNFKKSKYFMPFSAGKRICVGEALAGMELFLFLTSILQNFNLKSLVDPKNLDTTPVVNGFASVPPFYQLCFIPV
Chain of JNK3 (P53779 1-422 isoform P53779-2): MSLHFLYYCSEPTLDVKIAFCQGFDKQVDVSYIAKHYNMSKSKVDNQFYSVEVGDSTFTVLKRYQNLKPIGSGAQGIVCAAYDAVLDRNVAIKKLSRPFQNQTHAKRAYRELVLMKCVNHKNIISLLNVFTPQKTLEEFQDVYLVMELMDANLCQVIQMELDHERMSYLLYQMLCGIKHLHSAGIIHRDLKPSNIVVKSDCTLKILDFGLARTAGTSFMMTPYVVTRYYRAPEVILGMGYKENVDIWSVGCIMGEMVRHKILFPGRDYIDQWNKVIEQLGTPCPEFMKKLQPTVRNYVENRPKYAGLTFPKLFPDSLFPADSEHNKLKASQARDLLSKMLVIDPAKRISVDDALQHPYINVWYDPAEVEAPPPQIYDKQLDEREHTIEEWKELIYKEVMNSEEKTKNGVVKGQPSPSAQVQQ
Chain of JNK1 (P45983 whole entry): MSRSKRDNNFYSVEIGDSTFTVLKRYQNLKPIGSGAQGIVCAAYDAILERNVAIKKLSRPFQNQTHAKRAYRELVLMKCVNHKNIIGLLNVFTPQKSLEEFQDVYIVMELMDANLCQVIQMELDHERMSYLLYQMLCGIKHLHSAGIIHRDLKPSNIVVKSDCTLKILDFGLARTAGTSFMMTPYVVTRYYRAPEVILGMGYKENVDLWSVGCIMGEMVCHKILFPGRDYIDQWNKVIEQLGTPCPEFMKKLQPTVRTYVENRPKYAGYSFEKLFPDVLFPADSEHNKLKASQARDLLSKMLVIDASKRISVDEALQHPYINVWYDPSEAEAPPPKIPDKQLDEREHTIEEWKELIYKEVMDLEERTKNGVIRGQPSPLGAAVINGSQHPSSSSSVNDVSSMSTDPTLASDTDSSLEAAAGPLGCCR

On to “1,3-benzothiazol-2-yl (2-[[2-(3-pyridinyl) ethyl] amino]-4 pyrimidinyl) acetonitrile [AS601245]”, for which, in data set [1], the “inhibition of IL-2 release in Jurkat cells” value was 90%. Also, the “efficacy in transient global ischemia models” value in data set [2] was “efficacious”.

In general, IC50 refers to the concentration needed to halve the response being measured. Molecule `NC(=O)c1ccc(Nc2nccc(-c3ccccc3)n2)cc1` [Compound 9a] registered an IC50 in data set [3] of over 20 µM.

In [3], `c1cc(-c2ccnc(Nc3ccc(-n4ccnn4)cc3)n2)cc(N2CCOCC2)c1` [Compound 9c] registered an IC50 of over 20 µM.

Consider `CS(=O)(=O)Nc1ccc(-c2ccnc(Nc3ccc(S(N)(=O)=O)cc3)n2)cc1` [Compound 9d], for which the IC50 in [3] was over 20 µM.

With `CS(=O)(=O)Nc1ccc(-c2ccnc(Nc3ccc(-n4ccnn4)cc3)n2)cc1` [Compound 9e], in data set [4], the “decrease in potency (shift) for c-jun phosphorylation cell-based assay compared to JNK1 biochemical IC50” value (shortened to “decrease in potency (shift)”) is 13 fold. Further, the “Microsomal Stability (half life), mouse” value in data set [5] is “poor microsomal stability”. Further, the “Microsomal Stability (half life), rat” value in [6] is recorded as “poor microsomal stability”. Further, the “Microsomal Stability (half life), human” value in [7] is given as “poor microsomal stability”. For the same molecule, the “fold more potent versus JNK3 than compound 9c” value in data set [8] (compared to 9c) turned out to be 91 fold. Besides, the IC50 in data set [3] was over 20 µM.

Usually inhibition stands for the share of the control response that was lost under treatment. A higher inhibition goes with a response far below the control. As for `Cc1ncn(-c2ccc(Nc3nccc(-c4cccc(N5CCOCC5)c4)n3)cc2)n1` [Compound 9f], the inhibition at 15 min, 10 µM in data set [9], in data set [10], in data set [11] and in [12] was under 50% each time. This molecule also gave an IC50 in [3] of over 20 µM.

Consider `Cc1ncn(-c2ccc(Nc3nccc(-c4cc(C#N)cc(N5CCOCC5)c4)n3)cc2)n1` [Compound 9g], for which the “increase in potency for JNK1 inhibition compared to 9f” value in data set [13] (compared to 9f) is listed as “approximately 5 fold”. Besides, the “decrease in potency (shift)” value in data set [4] is “essentially equipotent”. In addition, in data set [8] (compared to 9f), the “increase in potency for JNK3 inhibition compared to 9f” value was “approximately 5 fold”. Besides, the “selectivity over p38” value in data set [14] was “greater than 135 fold”. Moreover, the IC50 in [3] is over 20 µM.

Regarding `Cn1nnc(-c2ccc(Nc3nccc(-c4cc(C#N)cc(N5CCOCC5)c4)n3)cc2)n1` [Compound 9h, 3-(2-(4-(2-methyl-2H-tetrazol-5-yl)phenylamino)pyrimidin-4-yl)-5-morpholinobenzonitrile], in [13] (compared to 9g), the “difference in IC50 for JNK1 compared to 9g” value is reported as “less than 2 fold”. Besides, in data set [4] (compared to 9g), the “difference in IC50 for c-jun phosphorylation compared to 9g” value was “less than 2 fold”. The inhibition at 15 min, 10 µM in data set [9], in data set [10], in data set [11] and in data set [12] was at most 15% each time. In [3], this molecule gave an IC50 of over 20 µM.

`c1cncc(-c2ncn(-c3ccc(Nc4nccc(-c5cccc(N6CCOCC6)c5)n4)cc3)n2)c1` [Compound 9i, 4-(3-Morpholinophenyl)-N-(4-(3-(pyridin-3-yl)-1H-1,2,4-triazol-1-yl)phenyl)pyrimidin-2-amine] gave an IC50 in data set [3] of over 20 µM.

Regarding `N#Cc1cc(-c2ccnc(Nc3ccc(-n4cnc(-c5ccccn5)n4)cc3)n2)cc(N2CCOCC2)c1` [Compound 9j, 3-Morpholino-5-(2-(4-(3-(pyridin-2-yl)-1H-1,2,4-triazol-1-yl)phenylamino)pyrimidin-4-yl)benzonitrile], the inhibition at 15 min, 10 µM in data set [9], in data set [10], in data set [11] and in data set [12] was at most 33% throughout. Further, in [3], the IC50 is over 20 µM.

For `CN1CCN(c2ncn(-c3ccc(Nc4nccc(-c5cc(F)cc(N6CCOCC6)c5)n4)cc3)n2)CC1` [Compound 9k], the “decrease in potency (shift)” value in data set [4] is reported as “essentially equipotent”. This molecule displayed an IC50 in data set [3] of over 20 µM.

In the case of `Fc1cc(-c2cc[nH]/c(=N/c3ccc(-n4cnc(N5CCOCC5)n4)cc3)n2)cc(N2CCOCC2)c1` [Compound 9l], the IC50 was about 0.05 µM in data set [4] (read-out: cell-based IC50, inhibition of c-jun phosphorylation) and over 20 µM in [3]. For the same molecule, the inhibition at 15 min, 10 µM in data set [9], in data set [11] and in data set [12] was 70 to 90% in each case. Moreover, in data set [15], the “number of kinases showing > 25% inhibition” value amounted to 28. In addition, the “number of kinases showing greater than 70% biochemical inhibition” value in data set [15] was “eleven”. Besides, the “inhibition of MKK7” value in data set [16] is recorded as “no inhibition”. Further, the “inhibition of MKK4” value in data set [17] is given as “no inhibition”. Moreover, the “inhibition of MLK1-3” value in data set [18] is recorded as “no inhibition”. For the same molecule, in data set [19], the “inhibition of MAPK3K1-4” value is reported as “no inhibition”. The “inhibition of ASK-1” value in data set [20] is “no inhibition”.
